The results in this text go back to patent US20250388589A1, “TRICYCLIC HETEROCYCLIC DERIVATIVES, COMPOSITIONS AND USES THEREOF” (Danatlas Pharmaceuticals Co., Ltd., priority 2022, published 2025).

Experiment [1] deals with hPARG (C-terminal His6-tag) (Homo sapiens (Human), UniProt Q86W56). Briefly: PARG Enzymatic Activity Assay (HTRF). Conditions: hPARG 65 pM final, biotinylated-NAD ribosylated PARP1 8 nM final. The format is biochemical. As to the method: PARG Enzymatic Activity Assay HTRF assay was used to measure the ability of compounds to inhibit the activity of PARG in vitro. C-terminal His6-tag PARG expressed in E. coli was purified and stored at −80° C. in aliquots. Assay measurements were performed with 1×buffer comprising 50 mM Tris pH 7.4, 0.1 mg/mL BSA, 3 mM EDTA, 0.4 mM EGTA, 1 mM DTT, 50 mM KCl and 0.01% Tween 20.
Compounds dissolved in DMSO were plated into a 384-well assay plate (PerkinElmer, Catalog #: 6008280) in duplicate using a dispenser (Labcyte, Echo 665), and tested on a 10-point 4-fold serial dilution. Add 5 L Enzyme mix [hPARG (C-terminal His6-tag, 4.2 μM), 65 pM final] to the test wells. The plates were covered and left to incubate for 60 minutes at RT before the addition of 5 L substrate mix [biotinylated-NAD ribosylated PARP1 (6.1 μM), 8 nM final] to initiate reaction. After incubating 10 minutes at RT, add 2.5 L Streptavidin-Eu cryptate (Cisbio, Catalog #: 610SAKLA) and 2.5 L Mab anti 6HIS-XL665 (Cisbio, Catalog #: 61HISXLA) to the plate, and incubate for 60 minutes at RT. Read on a multimode plate reader (PerkinElmer, Envision 2015) in time-resolved fluorescence (TRF) mode, with excitation at 337 nm and emission at both 620 nm and 665 nm. Average HTRF signal of high control (Wells with 1% DMSO) was calculated and as Vehicle Control (VC). Average HTRF signal of low control (no Enzyme) was calculated and as Positive control (PC).
(§1) IC50 values were determined by fitting the data to the standard 4 parameters with Hill Slope using GraphPad Prism software.
(In general: In TR-FRET formats the signal depends on donor and acceptor labels being close together.)

Experiment [2] concerns Kuramochi cell line. Briefly: Cell Viability Assay (Cell Titer-Glo, 7 days). The experiment is classed as cell-based. Conditions: 168 h, Kuramochi cells, 7 days incubation, read-out: PARG Cell viability (IC50). As to the method:
Cell viability studies were conducted in Kuramochi cell line. Cells were maintained in RPMI (Hyclone, Catalog #: SH3080901B) supplemented with 10% v/v FBS (AusGeneX, Catalog #: FBS500-S), 1% v/v Penicillin Streptomycin (Gibco, Catalog #: 15140122). Cells were seeded in 96-well plates (PerkinElmer, Catalog #: 6005680) at a density of 400 cells/well. Compounds dissolved in DMSO were plated in duplicate using a multichannel pipette, and tested on a 9-point 3-fold serial dilution. Cells were incubated for 7 days in a 37° C. active humidified incubator at 5% CO2. Cell viability was measured using the Cell Titer-Glo reagent (Promega, Catalog #: G7573) as manufacturer's instructions. Luminescence signal was measured with a multimode plate reader (Perkin Elmer, Envision 2105 or BMG, ClarioStar Plus). Average values of DMSO treated wells in a plate was calculated and as high control (HC). Average values of only medium in a plate was calculated and as low control (LC)
as §1
For orientation: ATP-based viability assays read luminescence as a measure of living cells.

Sequence of hPARG (C-terminal His6-tag) (Q86W56 whole entry): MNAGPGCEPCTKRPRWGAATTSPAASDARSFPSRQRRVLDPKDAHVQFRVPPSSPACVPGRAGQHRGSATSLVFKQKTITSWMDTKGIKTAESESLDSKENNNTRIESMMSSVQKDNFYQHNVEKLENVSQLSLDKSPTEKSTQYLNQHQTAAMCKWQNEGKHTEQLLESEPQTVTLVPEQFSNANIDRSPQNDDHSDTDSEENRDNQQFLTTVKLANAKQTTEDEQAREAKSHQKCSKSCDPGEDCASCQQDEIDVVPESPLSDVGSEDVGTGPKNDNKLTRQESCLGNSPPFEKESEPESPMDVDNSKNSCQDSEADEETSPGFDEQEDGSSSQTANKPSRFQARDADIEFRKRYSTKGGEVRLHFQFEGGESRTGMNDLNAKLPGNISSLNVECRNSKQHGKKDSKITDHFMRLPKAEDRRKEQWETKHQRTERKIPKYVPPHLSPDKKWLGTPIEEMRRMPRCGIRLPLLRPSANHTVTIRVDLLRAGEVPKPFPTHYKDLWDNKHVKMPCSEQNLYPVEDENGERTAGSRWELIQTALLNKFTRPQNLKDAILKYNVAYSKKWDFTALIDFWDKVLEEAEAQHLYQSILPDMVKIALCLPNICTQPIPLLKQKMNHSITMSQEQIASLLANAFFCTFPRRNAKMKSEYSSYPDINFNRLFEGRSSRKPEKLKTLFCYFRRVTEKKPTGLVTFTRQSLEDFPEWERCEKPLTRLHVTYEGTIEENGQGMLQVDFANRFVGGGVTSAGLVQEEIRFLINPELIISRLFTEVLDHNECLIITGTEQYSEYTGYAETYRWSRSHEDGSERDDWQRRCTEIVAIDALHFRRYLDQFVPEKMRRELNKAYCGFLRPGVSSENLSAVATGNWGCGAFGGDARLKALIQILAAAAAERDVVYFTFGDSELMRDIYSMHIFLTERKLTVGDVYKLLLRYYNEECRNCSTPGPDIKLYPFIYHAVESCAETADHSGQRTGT

In the case of `C[C@H]1CN(c2ncnc3c2c2ccc(S(=O)(=O)NC4(C#N)CC4)cc2n3-c2nnc(C(F)F)s2)CCN1C(=O)N(C)C` [Example 37, (S)-4-(7-(N-(1-Cyanocyclopropyl)sulfamoyl)-9-(5-(difluoromethyl)-1,3,4-thiadiazol-2-yl)-9H-pyrimido[4,5-b]indol-4-yl)-N,N,2-trimethylpiperazine-1-carboxamide], the IC50 in experiment [1] and in experiment [2] was below 0.1 µM throughout.
As for `CC(C)C(=O)N1C[C@H](C)N(c2ncnc3c2c2ccc(S(=O)(=O)NC4(C#N)CC4)cc2n3-c2nnc(C(F)F)s2)C[C@H]1C` [Example 38, N-(1-Cyanocyclopropyl)-9-(5-(difluoromethyl)-1,3,4-thiadiazol-2-yl)-4-((2S,5R)-4-isobutyryl-2,5-dimethylpiperazin-1-yl)-9H-pyrimido[4,5-b]indole-7-sulfonamide], the values for the half-inhibitory concentration (IC50) in experiment [1] and in experiment [2] were below 0.1 µM and 0.1 to 1 µM, respectively.
Regarding `C[C@@H]1CN(c2ncnc3c2c2ccc(S(=O)(=O)NC4(C#N)CC4)cc2n3-c2nnc(C(F)F)s2)C[C@H](C)N1C(=O)CN1CCOCC1` [Example 39, N-(1-Cyanocyclopropyl)-9-(5-(difluoromethyl)-1,3,4-thiadiazol-2-yl)-4-((3R,5S)-3,5-dimethyl-4-(2-morpholinoacetyl)piperazin-1-yl)-9H-pyrimido[4,5-b]indole-7-sulfonamide], the IC50 in experiment [1] and in experiment [2] was below 0.1 µM in each case.
For `N#CC1(NS(=O)(=O)c2ccc3c4c(N5CCN(CC6CC6)C(=O)C5)ncnc4n(-c4nnc(C(F)F)s4)c3c2)CC1` [Example 40, N-(1-Cyanocyclopropyl)-4-(4-(cyclopropylmethyl)-3-oxopiperazin-1-yl)-9-(5-(difluoromethyl)-1,3,4-thiadiazol-2-yl)-9H-pyrimido[4,5-b]indole-7-sulfonamide], the IC50 in experiment [1] and in experiment [2] was below 0.1 µM throughout.
On to `N#CC1(NS(=O)(=O)c2ccc3c4c(N5CCN(C(=O)N6CCCC6)CC5)ncnc4n(-c4nnc(C(F)F)s4)c3c2)CC1` [Example 41, N-(1-Cyanocyclopropyl)-9-(5-(difluoromethyl)-1,3,4-thiadiazol-2-yl)-4-(4-(pyrrolidine-1-carbonyl)piperazin-1-yl)-9H-pyrimido[4,5-b]indole-7-sulfonamide], for which the IC50 in experiment [1] and in experiment [2] was below 0.1 µM in each case.
As for `CN(CC(F)(F)F)C(=O)N1CCN(c2ncnc3c2c2ccc(S(=O)(=O)NC4(C#N)CC4)cc2n3-c2nnc(C(F)F)s2)CC1` [Example 42, 4-(7-(N-(1-Cyanocyclopropyl)sulfamoyl)-9-(5-(difluoromethyl)-1,3,4-thiadiazol-2-yl)-9H-pyrimido[4,5-b]indol-4-yl)-N-methyl-N-(2,2,2-trifluoroethyl)piperazine-1-carboxamide], the IC50 in experiment [1] and in experiment [2] was below 0.1 µM each time.
Take `CN(C)C(=O)c1ccc(-c2ncnc3c2c2ccc(S(=O)(=O)NC4(C#N)CC4)cc2n3-c2nnc(C(F)F)s2)cc1` [Example 43, 4-(7-(N-(1-Cyanocyclopropyl)sulfamoyl)-9-(5-(difluoromethyl)-1,3,4-thiadiazol-2-yl)-9H-pyrimido[4,5-b]indol-4-yl)-N,N-dimethylbenzamide]: the IC50 in experiment [1] was below 0.1 µM; in experiment [2], 0.1 to 1 µM.
Regarding `COC1CCN(c2ncnc3c2c2ccc(S(=O)(=O)NC4(C#N)CC4)cc2n3-c2nnc(C(F)F)s2)CC1` [Example 44, N-(1-Cyanocyclopropyl)-9-(5-(difluoromethyl)-1,3,4-thiadiazol-2-yl)-4-(4-methoxypiperidin-1-yl)-9H-pyrimido[4,5-b]indole-7-sulfonamide], the IC50 in experiment [1] and in experiment [2] was below 0.1 µM in each case.
For `C[C@@H]1CN(C(=O)N(C)C)[C@@H](C)CN1c1ncnc2c1c1cc(F)c(S(=O)(=O)NC3(C#N)CC3)cc1n2-c1nnc(C(F)F)s1` [Example 45, (2S,5R)-4-(7-(N-(1-Cyanocyclopropyl)sulfamoyl)-9-(5-(difluoromethyl)-1,3,4-thiadiazol-2-yl)-6-fluoro-9H-pyrimido[4,5-b]indol-4-yl)-N,N,2,5-tetramethylpiperazine-1-carboxamide], the IC50 in experiment [1] and in experiment [2] was below 0.1 µM each time.
In the case of `C[C@H]1CN(c2ncnc3c2c2cc(F)c(S(=O)(=O)NC4(C#N)CC4)cc2n3-c2nnc(C(F)F)s2)CCN1C(=O)N(C)C` [Example 46, (S)-4-(7-(N-(1-Cyanocyclopropyl)sulfamoyl)-9-(5-(difluoromethyl)-1,3,4-thiadiazol-2-yl)-6-fluoro-9H-pyrimido[4,5-b]indol-4-yl)-N,N,2-trimethylpiperazine-1-carboxamide], the concentration for half-maximal inhibition (IC50) in experiment [1] and in experiment [2] was below 0.1 µM in each case.
With `COC1(C(F)(F)F)CCN(c2ncnc3c2c2ccc(S(=O)(=O)NC4(C#N)CC4)cc2n3-c2nnc(C(F)F)s2)CC1` [Example 47, N-(1-Cyanocyclopropyl)-9-(5-(difluoromethyl)-1,3,4-thiadiazol-2-yl)-4-(4-methoxy-4-(trifluoromethyl)piperidin-1-yl)-9H-pyrimido[4,5-b]indole-7-sulfonamide], the half-inhibitory concentration (IC50) in experiment [1] is below 0.1 µM; in experiment [2], 0.1 to 1 µM.
For `CC1(O)CCN(c2ncnc3c2c2ccc(S(=O)(=O)NC4(C#N)CC4)cc2n3-c2nnc(C(F)F)s2)CC1` [Example 48, N-(1-Cyanocyclopropyl)-9-(5-(difluoromethyl)-1,3,4-thiadiazol-2-yl)-4-(4-hydroxy-4-methylpiperidin-1-yl)-9H-pyrimido[4,5-b]indole-7-sulfonamide] the same measures were below 0.1 µM and below 0.1 µM.
As to `N#CC1CCN(c2ncnc3c2c2ccc(S(=O)(=O)NC4(C#N)CC4)cc2n3-c2nnc(C(F)F)s2)CC1` [Example 49, N-(1-Cyanocyclopropyl)-4-(4-cyanopiperidin-1-yl)-9-(5-(difluoromethyl)-1,3,4-thiadiazol-2-yl)-9H-pyrimido[4,5-b]indole-7-sulfonamide], the IC50 in experiment [1] and in experiment [2] was below 0.1 µM each time.
With `C[C@H]1CN(c2ncnc3c2c2ccc(S(=O)(=O)NC4(C#N)CC4)cc2n3-c2nnc(C(F)F)s2)CCO1` [Example 50, (S)-N-(1-Cyanocyclopropyl)-9-(5-(difluoromethyl)-1,3,4-thiadiazol-2-yl)-4-(2-methylmorpholino)-9H-pyrimido[4,5-b]indole-7-sulfonamide], the IC50 in experiment [1] and in experiment [2] was below 0.1 µM in each case.
Take `N#CC1(NS(=O)(=O)c2ccc3c4c(N5CCC(F)CC5)ncnc4n(-c4nnc(C(F)F)s4)c3c2)CC1` [Example 51, N-(1-Cyanocyclopropyl)-9-(5-(difluoromethyl)-1,3,4-thiadiazol-2-yl)-4-(4-fluoropiperidin-1-yl)-9H-pyrimido[4,5-b]indole-7-sulfonamide]: the IC50 in experiment [1] is below 0.1 µM; in experiment [2], 0.1 to 1 µM.
As for `N#CC1(NS(=O)(=O)c2ccc3c4c(N5CCC(F)(F)CC5)ncnc4n(-c4nnc(C(F)F)s4)c3c2)CC1` [Example 52, N-(1-Cyanocyclopropyl)-9-(5-(difluoromethyl)-1,3,4-thiadiazol-2-yl)-4-(4,4-difluoropiperidin-1-yl)-9H-pyrimido[4,5-b]indole-7-sulfonamide], the IC50 in experiment [1] and in experiment [2] was 0.1 to 1 µM in each case.
In the case of `N#CC1(NS(=O)(=O)c2ccc3c4c(N5CC[C@@H](O)C5)ncnc4n(-c4nnc(C(F)F)s4)c3c2)CC1` [Example 54, (R)-N-(1-Cyanocyclopropyl)-9-(5-(difluoromethyl)-1,3,4-thiadiazol-2-yl)-4-(3-hydroxypyrrolidin-1-yl)-9H-pyrimido[4,5-b]indole-7-sulfonamide], the IC50 in experiment [1] and in experiment [2] was 0.1 to 1 µM each time.
Regarding `N#CC1(NS(=O)(=O)c2cc3c(cc2F)c2c(N4CCC(O)CC4)ncnc2n3-c2nnc(C(F)F)s2)CC1` [Example 55, N-(1-Cyanocyclopropyl)-9-(5-(difluoromethyl)-1,3,4-thiadiazol-2-yl)-6-fluoro-4-(4-hydroxypiperidin-1-yl)-9H-pyrimido[4,5-b]indole-7-sulfonamide], the IC50 in experiment [1] and in experiment [2] was below 0.1 µM each time.

As a reminder, the IC50 is the concentration that gives 50% inhibition.
